According to patent publication US20070099931A1, “Pharmaceutical dosage forms and compositions” (Wyeth, priority 2004, published 2007):
In brackets after ≈: the same amount, converted by molar mass.

Experiments:
[1] = tested on: glutamate and acetylcholine release; conditions: dentate gyrus of the hippocampus; cited from earlier work
[2] = aged rhesus monkeys, optimal dose 1 mg/kg po; cited from earlier work
Solubility in water = type: physicochemical; conditions: 25° C.
5-HT1A receptor [3] = conditions: chronic administration; cited from earlier work
5-HT1A receptor [4] = molecular target: T1, 5-HT1A receptor (Homo sapiens, UniProt P08908); conditions: in vitro; cited from earlier work
T1 sequence (P08908 1-422): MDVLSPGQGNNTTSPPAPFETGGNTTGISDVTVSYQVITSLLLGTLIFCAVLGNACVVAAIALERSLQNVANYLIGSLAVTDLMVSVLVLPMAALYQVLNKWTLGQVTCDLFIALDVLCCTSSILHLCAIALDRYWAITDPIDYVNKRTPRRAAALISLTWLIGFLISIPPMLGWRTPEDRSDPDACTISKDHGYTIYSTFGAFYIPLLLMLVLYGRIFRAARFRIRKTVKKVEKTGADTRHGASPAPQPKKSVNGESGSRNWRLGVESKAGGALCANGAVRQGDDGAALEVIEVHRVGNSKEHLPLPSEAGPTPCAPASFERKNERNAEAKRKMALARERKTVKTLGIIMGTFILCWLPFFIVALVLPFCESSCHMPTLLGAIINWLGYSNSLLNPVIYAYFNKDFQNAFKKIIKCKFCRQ

[5] = marmosets, 2 mg/kg im; cited from earlier work
[6] = tested on: 5-HT1A agonist discriminative stimulus cue; conditions: 0.01-1 mg/kg im; cited from earlier work
[7] = tested on: hippocampal extracellular 5-HT; conditions: cited from earlier work

solubility (Solubility in water): ~51 mg/mL (≈ 105 mM)
Compound: C[C@H](CN(C(=O)c1ccc(C#N)cc1)c1ccccn1)N1CCN(c2cccc3c2OCCO3)CC1 [lecozotan, 4-cyano-N-{(2R)-2-[4-(2,3-dihydro-benzo[1,4]dioxin-5-yl)-piperazin-1-yl]-propyl}-N-pyridin-2-yl-benzamide]
potassium chloride-stimulated release of glutamate and acetylcholine [1]: significantly potentiated
task performance efficiency [2]: significant improvement in task performance efficiency
5-HT1A receptor tolerance or desensitization (5-HT1A receptor [3]): did not induce 5-HT1A receptor tolerance or desensitization
5-HT1A receptor binding and intrinsic activity (5-HT1A receptor [4]): potent and selective 5-HT1A receptor antagonist
learning deficits induced by specific cholinergic lesions of the hippocampus [5]: reversed
learning deficits induced by the glutamatergic antagonist MK-801 [5]: reversed
blockade of the 5-HT1A agonist discriminative stimulus cue [6]: dose-related blockade
substitution for 8-OH-DPAT [6]: did not substitute for 8-OH-DPAT
effect alone on hippocampal extracellular 5-HT ([7]; doses 10-fold higher than 0.3 mg/kg sc): had no effects alone
effect on decrease in hippocampal extracellular 5-HT induced by 8 OH-DPAT (0.3 mg/kg sc) ([7]; lecozotan 0.3 mg/kg sc): antagonized the decrease in hippocampal extracellular 5-HT
